These results are taken from patent publication US11759455B2, “Substituted 1H-imidazo[4,5-b]pyridin-2(3H)-ones and their use as GLUN2B receptor modulators” (JANSSEN PHARMACEUTICA NV, priority 2016, dated 2023).

Read-outs that look alike come from different tables or passages of the source.

For the assay, the target named is T1, human GluN1/GluN2B NMDA receptors (Homo sapiens, UniProt Q13224).
T1 construct: expressed in transfected cells
Briefly: Cell-based calcium flux (FLIPR) assay on cloned human NR1/NR2B ion channels expressed in mammalian cells (standard and HTS buffer variants).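 Further: stable Tet-On inducible cell line, Ca2+ influx triggered by glutamate at about EC40 plus 10 µM glycine, fluorescent dye read-out over 5 min, normalized to control wells.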

[1] abbreviates: HTS assay buffer (1.5 mM MgCl2 in dye loading buffer; 150 mM NaCl, 3 mM KCl in assay buffer), human GluN1/GluN2B, read-out: NR2B IC50 (μM) HTS assay.
[2] abbreviates: standard assay buffer (0.5 mM MgCl2 dye loading; 137 mM NaCl, 4 mM KCl assay buffer), human GluN1/GluN2B cells, read-out: NR2B IC50 (μM) standard assay.
Setting [3] is: standard assay buffer (0.5 mM MgCl2 in dye loading buffer; 137 mM NaCl, 4 mM KCl in assay buffer), human GluN1/GluN2B, read-out: NR2B IC50 (μM) standard assay.

T1 sequence (Q13224 27-1484, other chains not shown): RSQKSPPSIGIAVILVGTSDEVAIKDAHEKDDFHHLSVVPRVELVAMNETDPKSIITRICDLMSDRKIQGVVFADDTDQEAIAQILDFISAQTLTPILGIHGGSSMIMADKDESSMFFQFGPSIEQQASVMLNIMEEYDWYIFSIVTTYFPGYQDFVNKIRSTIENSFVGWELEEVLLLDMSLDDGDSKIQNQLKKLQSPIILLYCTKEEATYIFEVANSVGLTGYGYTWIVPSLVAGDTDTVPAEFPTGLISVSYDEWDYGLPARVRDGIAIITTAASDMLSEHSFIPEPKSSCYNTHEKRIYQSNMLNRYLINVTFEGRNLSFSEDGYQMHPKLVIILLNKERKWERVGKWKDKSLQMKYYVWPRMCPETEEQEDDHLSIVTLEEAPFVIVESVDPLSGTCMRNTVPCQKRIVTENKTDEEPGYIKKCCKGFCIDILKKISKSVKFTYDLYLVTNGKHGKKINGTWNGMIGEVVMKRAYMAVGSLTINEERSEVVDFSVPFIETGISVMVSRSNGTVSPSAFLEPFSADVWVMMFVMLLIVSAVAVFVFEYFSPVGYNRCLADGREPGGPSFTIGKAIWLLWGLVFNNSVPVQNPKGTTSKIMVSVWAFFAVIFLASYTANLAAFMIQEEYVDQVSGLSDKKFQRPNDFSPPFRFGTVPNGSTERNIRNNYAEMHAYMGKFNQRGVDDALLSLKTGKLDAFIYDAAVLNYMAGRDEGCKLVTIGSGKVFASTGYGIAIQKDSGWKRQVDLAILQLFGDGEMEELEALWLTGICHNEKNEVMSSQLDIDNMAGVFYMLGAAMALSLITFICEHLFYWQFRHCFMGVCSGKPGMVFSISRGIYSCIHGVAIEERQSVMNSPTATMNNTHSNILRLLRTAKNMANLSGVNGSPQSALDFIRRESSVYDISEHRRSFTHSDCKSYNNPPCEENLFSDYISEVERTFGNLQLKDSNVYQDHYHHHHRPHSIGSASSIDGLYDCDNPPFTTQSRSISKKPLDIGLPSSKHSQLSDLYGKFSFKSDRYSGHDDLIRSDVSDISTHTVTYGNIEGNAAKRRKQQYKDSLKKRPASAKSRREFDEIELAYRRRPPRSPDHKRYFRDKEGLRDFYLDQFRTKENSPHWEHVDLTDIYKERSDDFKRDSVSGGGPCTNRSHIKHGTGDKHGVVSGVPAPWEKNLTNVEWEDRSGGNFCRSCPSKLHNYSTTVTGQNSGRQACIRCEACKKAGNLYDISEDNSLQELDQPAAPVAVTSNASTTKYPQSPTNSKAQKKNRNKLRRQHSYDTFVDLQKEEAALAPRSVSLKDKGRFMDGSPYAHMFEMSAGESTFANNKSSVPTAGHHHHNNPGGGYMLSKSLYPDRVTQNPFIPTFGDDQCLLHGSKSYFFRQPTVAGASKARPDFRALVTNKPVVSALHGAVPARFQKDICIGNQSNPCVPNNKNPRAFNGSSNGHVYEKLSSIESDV

For the compound `CCOc1ccc(F)cc1-c1cnc2[nH]c(=O)n(Cc3cccc(F)c3)c2c1` [Example 494, 6-(2-Ethoxy-5-fluoro-phenyl)-1-[(3-fluorophenyl)methyl]-3H-imidazo[4,5-b]pyridin-2-one], under setting [1], the IC50 is 5.64 µM. In the case of `Cc1cncc(Cn2c(=O)[nH]c3ncc(-c4ccc(F)c(C)c4)cc32)c1` [Example 269, 6-(4-Fluoro-3-methyl-phenyl)-1-[(5-methyl-3-pyridyl)methyl]-3H-imidazo[4,5-b]pyridin-2-one], the IC50 under setting [2] was determined as 0.128 µM. For `Cn1c(=O)n(CC(=O)N2CC(F)C2)c2cc(-c3cccc(Cl)c3)cnc21` [Example 406, 6-(3-Chlorophenyl)-1-[2-(3-fluoroazetidin-1-yl)-2-oxo-ethyl]-3-methyl-imidazo[4,5-b]pyridin-2-one], under setting [3], the half-inhibitory concentration (IC50) was found to be 0.016 µM.

`Cc1cc(-c2cnc3c(c2)n(Cc2ccncn2)c(=O)n3C)ccc1F` [Example 71, 6-(4-Fluoro-3-methyl-phenyl)-3-methyl-1-(pyrimidin-4-ylmethyl)imidazo[4,5-b]pyridin-2-one]: under setting [2], the IC50 turned out to be 0.278 µM.

Regarding `O=C(Cn1c(=O)[nH]c2ncc(-c3cccc(C(F)(F)F)c3)cc21)Nc1ccccn1` [Example 208, 2-[2-Oxo-6-[3-(trifluoromethyl)phenyl]-3H-imidazo[4,5-b]pyridin-1-yl]-N-(2-pyridyl)acetamide], the IC50 under setting [2] was greater than 10 µM. With `Cc1ccc(-c2cnc3c(c2)n(Cc2csnn2)c(=O)n3C)s1` [Example 556, 3-Methyl-6-(5-methyl-2-thienyl)-1-(thiadiazol-4-ylmethyl)imidazo[4,5-b]pyridin-2-one], the IC50 under setting [3] was found to be 0.363 µM. On the same count and under the same terms, the result for `Cc1cc(Cn2c(=O)n(C)c3ncc(-c4ccc(C(F)F)s4)cc32)no1` [Example 564, 6-[5-(Difluoromethyl)-2-thienyl]-3-methyl-1-[(5-methylisoxazol-3-yl)methyl]imidazo[4,5-b]pyridin-2-one] reads 0.087 µM. With `N#Cc1cccc(Cn2c(=O)[nH]c3ncc(-c4cccc(C(F)(F)F)c4)cc32)c1` [Example 212, 3-[[2-Oxo-6-[3-(trifluoromethyl)phenyl]-3H-imidazo[4,5-b]pyridin-1-yl]methyl]benzonitrile], the IC50 under setting [2] came to 0.123 µM. Turning to `Cn1c(=O)n(Cc2cncc(F)c2)c2cc(-c3cccc(OC(F)(F)F)c3)cnc21` [Example 345, 1-[(5-Fluoro-3-pyridyl)methyl]-3-methyl-6-[3-(trifluoromethoxy)phenyl]imidazo[4,5-b]pyridin-2-one], the IC50 under setting [3] turned out to be 0.778 µM. Still for that read-out and setting: the result for `Cn1c(=O)n(Cc2cccnn2)c2cc(-c3cccc(C(F)(F)F)c3)cnc21` [Example 378, 3-Methyl-1-(pyridazin-3-ylmethyl)-6-[3-(trifluoromethyl)phenyl]imidazo[4,5-b]pyridin-2-one] reads 0.031 µM; that for `Cc1c(F)ccc(-c2cnc3c(c2)n(Cc2cncc(F)c2)c(=O)n3C)c1F` [Example 341, 6-(2,4-Difluoro-3-methyl-phenyl)-1-[(5-fluoro-3-pyridyl)methyl]-3-methyl-imidazo[4,5-b]pyridin-2-one], 0.081 µM. As to `Cc1cccc(-c2cnc3c(c2)n(Cc2cccnc2)c(=O)n3C)c1F` [Example 357, 6-(2-Fluoro-3-methyl-phenyl)-3-methyl-1-(3-pyridylmethyl)imidazo[4,5-b]pyridin-2-one], the IC50 under setting [3] amounted to 0.118 µM.

On to `Cc1nnc(Cn2c(=O)n(C)c3ncc(-c4ccc(C)s4)cc32)o1` [Example 554, 3-Methyl-1-[(5-methyl-1,3,4-oxadiazol-2-yl)methyl]-6-(5-methyl-2-thienyl)imidazo[4,5-b]pyridin-2-one], for which, under setting [3], the IC50 amounted to 0.533 µM. On the same count and under the same terms, the result for `Cn1c(=O)n(Cc2cccnc2)c2cc(-c3cc(F)cc(F)c3)cnc21` [Example 354, 6-(3,5-Difluorophenyl)-3-methyl-1-(3-pyridylmethyl)imidazo[4,5-b]pyridin-2-one] reads 1.03 µM. For the compound `Cc1ncc(-c2cnc3c(c2)n(CC(=O)N2CCC2)c(=O)n3C)s1` [Example 112, 1-[2-(Azetidin-1-yl)-2-oxo-ethyl]-3-methyl-6-(2-methylthiazol-5-yl)imidazo[4,5-b]pyridin-2-one], the IC50 under setting [2] worked out at 5.1 µM. Consider `O=c1[nH]c2ncc(-c3cccs3)cc2n1CC1CC1` [Example 472, 1-(Cyclopropylmethyl)-6-(2-thienyl)-3H-imidazo[4,5-b]pyridin-2-one], for which the IC50 under setting [3] is 1.56 µM. Take `Cn1c(=O)n(CC(=O)N2CCC2)c2cc(-c3csc(C(F)F)c3)cnc21` [Example 98, 1-[2-(Azetidin-1-yl)-2-oxo-ethyl]-6-[5-(difluoromethyl)-3-thienyl]-3-methyl-imidazo[4,5-b]pyridin-2-one]: the IC50 under setting [2] was 0.013 µM. On to `COc1cccc(-c2cnc3[nH]c(=O)n(CC(=O)NC4CC4)c3c2)c1` [Example 450, N-Cyclopropyl-2-[6-(3-methoxyphenyl)-2-oxo-3H-imidazo[4,5-b]pyridin-1-yl]acetamide], for which the IC50 under setting [1] is 1.76 µM. As for `CCOc1ccccc1-c1cnc2[nH]c(=O)n(Cc3cccc(OC)c3)c2c1` [Example 605, 6-(2-Ethoxyphenyl)-1-[(3-methoxyphenyl)methyl]-3H-imidazo[4,5-b]pyridin-2-one], the IC50 under setting [3] stood at 2.09 µM. Turning to `CN(C)C(=O)Cn1c(=O)n(C)c2ncc(-c3ccc(C(F)(F)F)s3)cc21` [Example 28, N,N-Dimethyl-2-[3-methyl-2-oxo-6-[5-(trifluoromethyl)-2-thienyl]imidazo[4,5-b]pyridin-1-yl]acetamide], under setting [2], the IC50 was 0.034 µM.

`CN(C)C(=O)Cn1c(=O)n(C)c2ncc(-c3ccc(Cl)s3)cc21` [Example 9, 2-[6-(5-Chloro-2-thienyl)-3-methyl-2-oxo-imidazo[4,5-b]pyridin-1-yl]-N,N-dimethyl-acetamide]: the IC50 under setting [2] stood at 0.005 µM. Still for that read-out and setting: then `O=c1ccc(Cn2c(=O)[nH]c3ncc(-c4cccc(C(F)(F)F)c4)cc32)c[nH]1` [Example 244, 1-[(6-Oxo-1H-pyridin-3-yl)methyl]-6-[3-(trifluoromethyl)phenyl]-3H-imidazo[4,5-b]pyridin-2-one], with 1.89 µM. `Cn1c(=O)n(Cc2cncc(F)c2)c2cc(-c3ccc(F)c(OC(F)F)c3)cnc21` [Example 547, 6-[3-(Difluoromethoxy)-4-fluoro-phenyl]-1-[(5-fluoro-3-pyridyl)methyl]-3-methyl-imidazo[4,5-b]pyridin-2-one]: under setting [3], the IC50 stood at 0.036 µM. Consider `Cc1ccncc1Cn1c(=O)[nH]c2ncc(-c3cc(F)c(F)c(F)c3)cc21` [Example 312, 1-[(4-Methyl-3-pyridyl)methyl]-6-(3,4,5-trifluorophenyl)-3H-imidazo[4,5-b]pyridin-2-one], for which, under setting [2], the IC50 came out at 0.002 µM. Same read-out and setting: the result for `Cc1cncc(Cn2c(=O)[nH]c3ncc(-c4cccc(F)c4)cc32)c1` [Example 274, 6-(3-Fluorophenyl)-1-[(5-methyl-3-pyridyl)methyl]-3H-imidazo[4,5-b]pyridin-2-one] reads 0.057 µM.

In the case of `Cc1ccc(-c2cnc3c(c2)n(Cc2cn(C)nn2)c(=O)n3C)s1` [Example 553, 3-Methyl-6-(5-methyl-2-thienyl)-1-[(1-methyltriazol-4-yl)methyl]imidazo[4,5-b]pyridin-2-one], the IC50 under setting [3] came out at 0.726 µM. On to `COCCn1c(=O)[nH]c2ncc(-c3ccc(F)cc3C)cc21` [Example 2, 6-(4-Fluoro-2-methyl-phenyl)-1-(2-methoxyethyl)-3H-imidazo[4,5-b]pyridin-2-one], for which the IC50 (HTS assay buffer (1.5 mM MgCl2 dye loading; 150 mM NaCl, 3 mM KCl assay buffer), human GluN1/GluN2B cells, read-out: NR2B IC50 (μM) HTS assay) was found to be 2.06 µM. With `Cn1c(=O)n(Cc2ccncn2)c2cc(-c3cccc(F)c3)cnc21` [Example 7, 6-(3-Fluorophenyl)-3-methyl-1-(pyrimidin-4-ylmethyl)imidazo[4,5-b]pyridin-2-one], under setting [2], the IC50 worked out at 6.77 µM. On to `CN(C)C(=O)Cn1c(=O)n(C)c2ncc(-c3cccc(C(F)(F)F)c3)cc21` [Example 419, N,N-Dimethyl-2-[3-methyl-2-oxo-6-[3-(trifluoromethyl)phenyl]imidazo[4,5-b]pyridin-1-yl]acetamide], for which, under setting [3], the IC50 is 0.047 µM. Same read-out and setting: then `Cn1c(=O)n(Cc2cccnc2)c2cc(-c3cccc(C(F)(F)F)c3F)cnc21` [Example 358, 6-[2-Fluoro-3-(trifluoromethyl)phenyl]-3-methyl-1-(3-pyridylmethyl)imidazo[4,5-b]pyridin-2-one], with 0.049 µM.

As for `O=c1[nH]c2ncc(-c3cccc(C(F)F)c3)cc2n1Cc1cncc(F)c1` [Example 302, 6-[3-(Difluoromethyl)phenyl]-1-[(5-fluoro-3-pyridyl)methyl]-3H-imidazo[4,5-b]pyridin-2-one], the IC50 under setting [2] turned out to be 0.022 µM. Turning to `Cc1cccc(-c2cnc3c(c2)n(CC(=O)N(C)C)c(=O)n3C)c1F` [Example 427, 2-[6-(2-Fluoro-3-methyl-phenyl)-3-methyl-2-oxo-imidazo[4,5-b]pyridin-1-yl]-N,N-dimethyl-acetamide], under setting [3], the IC50 was determined as 0.041 µM. `Cn1c(=O)n(Cc2ncccn2)c2cc(-c3cccc(F)c3)cnc21` [Example 56, 6-(3-Fluorophenyl)-3-methyl-1-(pyrimidin-2-ylmethyl)imidazo[4,5-b]pyridin-2-one]: under setting [2], the IC50 was 8.71 µM. Still for that read-out and setting: the result for `Cn1c(=O)n(Cc2cccnn2)c2cc(-c3csc(C(F)(F)F)c3)cnc21` [Example 103, 3-Methyl-1-(pyridazin-3-ylmethyl)-6-[5-(trifluoromethyl)-3-thienyl]imidazo[4,5-b]pyridin-2-one] reads 0.017 µM. As for `COc1cc(F)ccc1-c1cnc2[nH]c(=O)n(CC3CC3)c2c1` [Example 467, 1-(Cyclopropylmethyl)-6-(4-fluoro-2-methoxy-phenyl)-3H-imidazo[4,5-b]pyridin-2-one], the IC50 under setting [1] was determined as 0.305 µM. With `Cn1c(=O)n(CC(=O)N2CC(F)C2)c2cc(-c3ccc(C4CC4)s3)cnc21` [Example 106, 6-(5-Cyclopropyl-2-thienyl)-1-[2-(3-fluoroazetidin-1-yl)-2-oxo-ethyl]-3-methyl-imidazo[4,5-b]pyridin-2-one], under setting [2], the IC50 is 0.039 µM.
